From publication PMC5674823, “Cloning, expression and identification of KTX-Sp4, a selective Kv1.3 peptidic blocker from Scorpiops pococki” (Cell & Bioscience, 2017)
Bridge positions count the residues as written; N and C are the ends. Ends that are not written are not given here.

How the values were obtained:
[1] = tested on: voltage-gated potassium channels on DRG cells; assay: Whole-cell patch-clamp, voltage-gated K+ currents in acutely isolated DRG cells; format: cell-based, mouse; conditions: 1 μM peptide, +50 mV 400 ms pulse from -60 mV
Method: Mouse spinal columns were removed and placed in ice-cold HBSS; neurons were acutely dissociated and maintained as described. In brief, laminectomies were performed and bilateral DRG were dissected out. After removal of connective tissues, DRG were transferred to a 1 ml Ca^2+/Mg^2+-free HBSS containing 2 μl saturated NaHCO3, 0.35 mg L-cysteine and 20 U papain (Worthington, Lakewood, NJ, USA), and incubated at 37 °C for 10 min. The suspension of DRG was centrifuged, the supernatant was removed, 1 ml Ca^2+/Mg^2+-free HBSS containing 4 mg collagenase type II and 1.25 mg dispase type II (Worthington) was added and incubated at 37 °C for 10 min. After digestion, neurons were pelleted, suspended in neurobasal medium containing 2% B-27 supplement, 1% L-glutamine, 100 U/ml penicillin plus 100 μg/ml streptomycin, and 50 ng/ml nerve growth factor, plated on a 12 mm coverslip coated with poly-L-lysine (10 μg/ml) and cultured under a humidified atmosphere of 5% CO2/95% air at 37 °C for 18–24 h before use.
Whole-cell patch-clamp recordings were performed using an EPC 9 amplifier (HEKA Elektronik, Lambrecht/Pfalz, Germany) at room temperature (22–24 °C). Pipettes pulled from borosilicate glass (BF 150-86-10; Sutter Instrument Company, Novato, CA, USA) had resistances of 2–4 MΩ when filled with the internal solution. […]

mKv1.1-AEHS/PSGN = target: T1, mKv1.1-AEHS/PSGN (Mus musculus, UniProt P16388, A352P/E353S/H355G/S357N); assay: Whole-cell patch-clamp, turret mutant Kv1.1-AEHS/PSGN expressed in HEK293T cells; format: cell-based; conditions: four Kv1.1 turret residues replaced by those of Kv1.3, mean ± SE of six experiments, SEM, read-out: IC50 on Kv1.1-AEHS/PGSN mutant channel
T1 construct: expressed in transfected cells; host or cells: HEK293T cells, pIRES2-EGFP vector
Method: (§1) Jurkat E6-1 T cells (ATCC TIB152) and HEK293T cells (ATCC ACS4500) were maintained in RPMI medium 1640 (Invitrogen, Carlsbad, CA, USA) and Dulbecco’s modified Eagle’s medium (DMEM) (Life Technologies, GrandIsland, NY, USA), supplemented with 10% fetal bovine serum (Life Technologies), 100 units/ml penicillin, 100 μg/ml streptomycin, respectively. Cells were cultured in a humidified incubator at 37 °C with 5% CO2. The cDNAs encoding mKv1.1, mKv1.1-AEHS/PSGN, hKv1.2 and mKv1.3 [18] were subcloned into the XhoI/BamHI sites of a bicistronic vector, pIRES2-EGFP (Clontech, USA), then transiently transfected into HEK293-T cells using Lipofectamine 2000 (Invitrogen) for electrophysiological experiments.
(§2) Whole-cell patch-clamp recordings were performed using an EPC 9 amplifier (HEKA Elektronik, Lambrecht/Pfalz, Germany) at room temperature (22–24 °C). Pipettes pulled from borosilicate glass (BF 150-86-10; Sutter Instrument Company, Novato, CA, USA) had resistances of 2–4 MΩ when filled with the internal solution. The internal pipette solution for recording Kv currents on DRG neurons contained: 120 mM potassium gluconate, 20 mM KCl, 10 mM EGTA, 10 mM HEPES, 5 mM Na2-ATP, 2 mM MgCl2, 1 mM CaCl2 (pH 7.3 withKOH). […]

mKv1.1 = assay: Whole-cell patch-clamp, Kv1.1 heterologously expressed in HEK293T cells; format: cell-based, mouse; conditions: 1 μM peptide
Method: as §1, §2

mKv1.3 = target: T2, mKv1.3 (Mus musculus, UniProt P16390); assay: Whole-cell patch-clamp, mKv1.3 heterologously expressed in HEK293T cells; format: cell-based
T2 construct: expressed in transfected cells; host or cells: HEK293T cells, pIRES2-EGFP vector
Method: as §1, §2

[2] = target: T3, endogenous Kv1.3 expressed by human Jurkat T cells (Homo sapiens, UniProt P22001); assay: Whole-cell patch-clamp, endogenous Kv1.3 currents in Jurkat T cells; format: cell-based
T3 construct: endogenous Kv1.3 expressed by human Jurkat T cells; endogenous in cells; host or cells: Jurkat E6-1 T cells (ATCC TIB152)
Method: as §1, §2

hKv1.2 = assay: Whole-cell patch-clamp, Kv1.2 heterologously expressed in HEK293T cells; format: cell-based, human; conditions: 1 μM peptide
Method: as §1, §2

T2 sequence (P16390 whole entry): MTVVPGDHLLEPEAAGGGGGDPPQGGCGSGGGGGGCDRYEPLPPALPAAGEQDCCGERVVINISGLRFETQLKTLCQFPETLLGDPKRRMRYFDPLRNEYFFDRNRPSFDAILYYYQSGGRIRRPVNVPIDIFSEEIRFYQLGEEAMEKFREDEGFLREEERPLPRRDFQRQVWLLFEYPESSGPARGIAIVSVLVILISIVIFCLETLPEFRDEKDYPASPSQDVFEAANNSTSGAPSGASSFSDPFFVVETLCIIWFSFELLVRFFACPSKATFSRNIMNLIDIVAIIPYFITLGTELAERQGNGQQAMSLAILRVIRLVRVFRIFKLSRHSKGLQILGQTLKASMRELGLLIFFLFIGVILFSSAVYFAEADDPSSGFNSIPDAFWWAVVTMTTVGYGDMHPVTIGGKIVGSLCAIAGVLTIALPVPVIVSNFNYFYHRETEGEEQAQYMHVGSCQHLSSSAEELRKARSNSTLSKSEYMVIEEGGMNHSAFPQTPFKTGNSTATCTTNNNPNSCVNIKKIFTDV
T3 sequence (P22001 whole entry): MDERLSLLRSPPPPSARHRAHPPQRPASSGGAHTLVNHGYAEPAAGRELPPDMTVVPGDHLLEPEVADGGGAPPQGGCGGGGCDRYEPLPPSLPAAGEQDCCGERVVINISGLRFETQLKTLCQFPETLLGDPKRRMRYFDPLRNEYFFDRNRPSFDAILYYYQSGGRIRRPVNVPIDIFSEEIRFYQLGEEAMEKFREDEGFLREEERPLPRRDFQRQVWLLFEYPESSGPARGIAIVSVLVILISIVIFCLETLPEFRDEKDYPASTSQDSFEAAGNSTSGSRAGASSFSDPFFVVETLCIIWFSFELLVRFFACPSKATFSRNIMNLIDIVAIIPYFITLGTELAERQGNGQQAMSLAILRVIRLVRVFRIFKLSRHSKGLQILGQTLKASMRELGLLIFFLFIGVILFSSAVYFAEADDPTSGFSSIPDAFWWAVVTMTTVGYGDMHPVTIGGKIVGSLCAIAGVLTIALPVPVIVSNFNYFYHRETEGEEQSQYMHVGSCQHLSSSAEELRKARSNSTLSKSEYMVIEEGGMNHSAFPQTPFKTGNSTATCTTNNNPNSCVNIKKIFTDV
T1 sequence (P16388 whole entry A352P/E353S/H355G/S357N): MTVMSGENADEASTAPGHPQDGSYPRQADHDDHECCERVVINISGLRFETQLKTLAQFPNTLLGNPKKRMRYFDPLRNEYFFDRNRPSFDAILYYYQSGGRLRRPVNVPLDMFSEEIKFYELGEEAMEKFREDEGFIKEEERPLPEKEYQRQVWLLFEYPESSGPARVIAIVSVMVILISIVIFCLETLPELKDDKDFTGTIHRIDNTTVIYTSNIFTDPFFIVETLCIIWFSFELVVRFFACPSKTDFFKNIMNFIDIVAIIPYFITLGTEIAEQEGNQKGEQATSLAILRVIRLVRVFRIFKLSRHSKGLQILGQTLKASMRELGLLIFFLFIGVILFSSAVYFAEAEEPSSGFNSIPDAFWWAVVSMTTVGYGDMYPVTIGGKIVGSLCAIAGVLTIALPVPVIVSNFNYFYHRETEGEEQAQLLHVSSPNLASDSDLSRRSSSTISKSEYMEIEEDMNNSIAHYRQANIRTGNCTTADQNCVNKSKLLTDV

Sequence: AFPSENPTGGCPLSDNVCSSYCKKNKFGNEGKCHGTICKCSIK (disulfide 11-33, 18-38, 22-40 (inferred)) [KTX-Sp4]
- Inhibitory effect on voltage-gated K+ currents on DRG cells [1]: no significant inhibitory effect
- IC50 (mKv1.1-AEHS/PSGN): 12.1 ± 4.08 nM
- Reduction of maximum current of Kv1.1 channel (mKv1.1): about 20.85%
- IC50 (mKv1.3; HEK293T cells, steady-state current at end of depolarizing pulse, n = 10, read-out: IC50 on wild-type mKv1.3-mediated steady-state current): 24.7 ± 10.8 nM
- Blocking activity on Kv1.3, times weaker than that of J123 (mKv1.3; comparison with J123): 31 times
- Reversibility of suppressive effect on Kv1.3 after washout ([2]; Jurkat T cells, bath application, washout): partially reversible
- IC50 ([2]; whole-cell patch-clamp, +50 mV 400 ms pulse from -60 mV, almost zero cytosolic Ca2+ pipette solution, Hill fit, n = 8, read-out: IC50 of inhibition of Kv1.3 current in Jurkat T cells): 235 ± 3.36 nM
- Reduction of maximum current of Kv1.2 channel (hKv1.2): ~7.23%
